System: human hepatoma Huh-7 cell line harboring a HCV replicon
Assay: HCV replicon assay (inhibition of viral replication, luciferase readout)
Format: cell-based
Conditions: Huh-7 HCV replicon cells, 3 days incubation; for inhibition at 2 µM: Hepatitis C virus, 72 h
Procedure: The anti-HCV activity of the compounds of this invention was tested in a human hepatoma Huh-7 cell line harboring a HCV replicon. The assay comprised the following steps:
Step 1: Compound Preparation and Serial Dilution.
Serial dilution was performed in 100% DMSO in a 384-well plate. A solution containing a compound at 225-fold concentration of the starting final serial dilution concentration was prepared in 100% DMSO and 15 μL added to the pre-specified wells in column 3 or 13 of a polypropylene 384-well plate. The rest of the 384-well plate was filled with 10 μL 100% DMSO except for columns 23 and 24, where 10 μL of 500 μM a HCV protease inhibitor (ITMN-191) in 100% DMSO was added. The HCV protease inhibitor was used a control of 100% inhibition of HCV replication. The plate was then placed on a Biomek FX Workstation to start the serial dilution. The serial dilution was performed for ten cycles of 3-fold dilution from column 3 to 12 or from column 13 to 22.
Step 2: Cell Culture Plate Preparation and Compound Addition
To each well of a black polypropylene 384-well plate, 90 μL of cell media containing 1600 suspended Huh-7 HCV replicon cells was added with a Biotek uFlow Workstation. A volume of 0.4 μL of the compound solution was transferred from the serial dilution plate to the cell culture plate on a Biomek FX Workstation. The DMSO concentration in the final assay condition was 0.44%. The plates were incubated for 3 days at 37° C. with 5% CO2 and 85% humidity.
Step 3: Detection of Cytotoxicity and Inhibition of Viral Replication
a) Assessment of cytotoxicity: The media in the 384-well cell culture plate was aspirated with a Biotek EL405 plate-washer. A volume of 50 μL of a solution containing 400 nM Calcein AM in 100% PBS was added to each well of the plate with a Biotek uFlow Workstation. The plate was incubated for 30 minutes at room temperature before the fluorescence signal ([…]) was measured with a Perkin Elmer Envision Plate Reader.
b) Assessment of inhibition of viral replication: The calcein-PBS solution in the 384-well cell culture plate was aspirated with a Biotek EL405 plate-washer. A volume of 20 μL of Dual-Glo luciferase buffer (Promega, Dual-Glo Luciferase Assay Reagent, cat. #E298B) was added to each well of the plate with a Biotek uFlow Workstation. The plate was incubated for 10 minutes at room temperature. A volume of 20 μL of a solution containing 1:100 mixture of Dual-Glo Stop & Glo substrate (Promega, Dual-Glo Luciferase Assay Reagent, cat. #E313B) and Dual-Glo Stop & Glo buffer (Promega, Dual-Glo Luciferase Assay Reagent, cat. #E314B) was then added to each well of the plate with a Biotek uFlow Workstation. The plate was incubated at room temperature for 10 minutes before the luminescence signal was measured with a Perkin Elmer Envision Plate Reader.
The percent cytotoxicity was determined by calcein AM conversion to fluorescent product. The average fluorescent signal from the DMSO control wells was defined as 100% nontoxic. The individual fluorescent signal from testing compound treated well was divided by the average signal from DMSO control wells and then multiplied by 100% to get the percent viability. The percent anti-HCV replication activity was determined by the luminescence signal from the testing well compared to DMSO control wells. The background signal was determined by the average luminescence signal from the HCV protease inhibitor treated wells and was subtracted from the signal from the testing wells as well as the DMSO control wells. Following 3-fold serial dilutions, the EC50 and CC50 values were calculated by fitting % inhibition at each concentration to the following equation: % inhibition=100%/[EC50/[I])^b+1]
Where b is Hill's coefficient. See, for reference, Hill, A. V., The Possible Effects of the Aggregation of the Molecules of Hæmoglobin on its Dissociation Curves, J. Physiol. 40: iv-vii. (1910). […]

Compound | inhibition at 2 µM [%] | % inhibition at 2μM [%]
CC(C)(C)C#Cc1cc(N(C(=O)[C@H]2CC[C@H](C)CC2)[C@H]2C[C@@H](Oc3ncccn3)C2)c(C(=O)O)s1 [Compound 22, 5-(3,3-Dimethyl-but-1-ynyl)-3-{(trans-4-methyl-cyclohexanecarbonyl)-[cis-3-(pyrimidin-2-yloxy)-cyclobutyl]-amino}-thiophene-2-carboxylic acid] | 96.2 | –
C=C1CCC(C(=O)N(c2cc(C#CC(C)(C)C)sc2C(=O)O)[C@H]2CC[C@H](Oc3cc(CN(C)C)ccn3)CC2)CC1 [Compound 325, 3-[[4-(4-dimethylaminomethyl-pyridin-2-yloxy)-cyclohexyl]-(4-methylene-cyclohexanecarbonyl)-amino]-5-(3,3-dimethyl-but-1-ynyl)-thiophene-2-carboxylic acid] | 100 | –
CC(C)(C)C#Cc1cc(N(C(=O)[C@H]2CC[C@H](C)CC2)[C@H]2CC[C@H](Sc3nnc4ccccn34)CC2)c(C(=O)O)s1 [Compound 92, 3-(N-(4-([1,2,4]-Triazolo[4,3-a]pyridin-3-ylthio)cyclohexyl)-4-methylcyclohexanecarboxamido)-5-(3,3-dimethylbut-1-ynyl)thiophene-2-carboxylic acid] | 100 | –
CC(C)(C)C#Cc1cc(N(C(=O)[C@H]2CC[C@H](C)CC2)[C@H]2CC[C@H](Oc3ccccn3)CC2)c(C(=O)O)s1 [Compound 1, 5-(3,3-Dimethyl-but-1-ynyl)-3-{(trans-4-methyl-cyclohexanecarbonyl)-[trans-4-(pyridin-2-yloxy)-cyclohexyl]-amino}-thiophene-2-carboxylic acid] | 99.8 | –
CC(C)(C)C#Cc1cc(N(C(=O)[C@H]2CC[C@H](C)CC2)[C@H]2CC[C@@H](Oc3ccc(O)nn3)CC2)c(C(=O)O)s1 [Compound 178, 5-(3,3-Dimethylbut-1-ynyl)-3-(N-(4-(6-hydroxypyridazin-3-yloxy)cyclohexyl)-4-methylcyclohexanecarboxamido)thiophene-2-carboxylic acid] | 100 | –
CN(C)c1ccc(O[C@H]2CC[C@H](N(c3cc(C#CC(C)(C)C)sc3C(=O)O)C(=O)[C@H]3CC[C@H](C)CC3)CC2)nn1 [Compound 160, 3-(N-(4-(6-(Dimethylamino)pyridazin-3-yloxy)cyclohexyl)-4-methylcyclohexanecarboxamido)-5-(3,3-dimethylbut-1-ynyl)thiophene-2-carboxylic acid] | 99.9 | –
CC(C)(C)C#Cc1cc(N(C(=O)[C@H]2CC[C@H](C)CC2)[C@H]2CC[C@H](Sc3nccs3)CC2)c(C(=O)O)s1 [Compound 106, 5-(3,3-Dimethylbut-1-ynyl)-3-(4-methyl-N-(4-(thiazol-2-ylthio)cyclohexyl)cyclohexanecarboxamido)thiophene-2-carboxylic acid] | 99.9 | –
CN(C)c1nc(O[C@H]2CC[C@H](N(c3cc(C#CC(C)(C)C)sc3C(=O)O)C(=O)[C@H]3CC[C@H](C)CC3)CC2)ncc1F [Compound 151, 3-(N-(4-(4-(Dimethylamino)-5-fluoropyrimidin-2-yloxy)cyclohexyl)-4-methylcyclohexanecarboxamido)-5-(3,3-dimethylbut-1-ynyl)thiophene-2-carboxylic acid] | 99.4 | –
CC(C)(C)C#Cc1cc(N(C(=O)[C@H]2CC[C@H](C)CC2)[C@H]2CC[C@H](Oc3nc(CN4CCCC4)ns3)CC2)c(C(=O)O)s1 [Compound 161, 5-(3,3-Dimethylbut-1-ynyl)-3-(4-methyl-N-(4-(3-(pyrrolidin-1-ylmethyl)-1,2,4-thiadiazol-5-yloxy)cyclohexyl)cyclohexanecarboxamido)thiophene-2-carboxylic acid] | 99.9 | –
CC(C)(C)C#Cc1cc(N(C(=O)[C@H]2CC[C@H](C)CC2)[C@H]2CC[C@H](Oc3nccs3)CC2)c(C(=O)O)s1 [Compound 15, 5-(3,3-Dimethyl-but-1-ynyl)-3-{(trans-4-methyl-cyclohexanecarbonyl)-[trans-4-(thiazol-2-yloxy)-cyclohexyl]-amino}-thiophene-2-carboxylic acid] | 99.6 | –
CN(C)c1cc(O[C@H]2CC[C@H](N(c3cc(C#CC(C)(C)C)sc3C(=O)O)C(=O)[C@H]3CC[C@H](C)CC3)CC2)ncn1 [Compound 158, 3-(N-(4-(6-(Dimethylamino)pyrimidin-4-yloxy)cyclohexyl)-4-methylcyclohexanecarboxamido)-5-(3,3-dimethylbut-1-ynyl)thiophene-2-carboxylic acid] | 99.9 | –
Cc1nnc(S[C@H]2CC[C@H](N(c3cc(C#CC(C)(C)C)sc3C(=O)O)C(=O)[C@H]3CC[C@H](C)CC3)CC2)o1 [Compound 98, 5-(3,3-Dimethylbut-1-ynyl)-3-(4-methyl-N-(4-(5-methyl-1,3,4-oxadiazol-2-ylthio)cyclohexyl)cyclohexanecarboxamido)thiophene-2-carboxylic acid] | 100 | –
CC(C)(C)C#Cc1cc(N(C(=O)[C@H]2CC[C@H](C)CC2)[C@@H]2CCC(Oc3ccccn3)C(CN3CCCC3)C2)c(C(=O)O)s1 (stereo partly drawn) [Compound 171, Sodium 5-(3,3-dimethylbut-1-ynyl)-3-(4-methyl-N-((1R)-4-(pyridin-2-yloxy)-3-(pyrrolidin-1-ylmethyl)cyclohexyl)cyclohexanecarboxamido)thiophene-2-carboxylate] | 99.7 | –
CC(C)(C)C#Cc1cc(N(C(=O)[C@H]2CC[C@H](C)CC2)[C@H]2CC[C@H](Oc3cc(CN4CCCC4)ccn3)CC2)c(C(=O)O)s1 [Compound 27, 5-(3,3-Dimethyl-but-1-ynyl)-3-{(trans-4-methyl-cyclohexanecarbonyl)-[trans-4-(4-pyrrolidin-1-ylmethyl-pyridin-2-yloxy)-cyclohexyl]-amino}-thiophene-2-carboxylic acid] | 100 | –
CC1CCC(C(=O)N(c2cc(C#CC(C)(C)C)sc2C(=O)O)[C@H]2CC[C@H](Oc3ccnc(CN(C)C)c3)CC2)CC1 (stereo partly drawn) [Compound 200, 3-[[-4-(2-dimethylaminomethyl-pyridin-4-yloxy)-cyclohexyl]-(4-methyl-cyclohexanecarbonyl)-amino]-5-(3,3-dimethyl-but-1-ynyl)-thiophene-2-carboxylic acid] | 100 | –
5-(3,3-Dimethyl-but-1-ynyl)-3-{(trans-4-methyl-cyclohexanecarbonyl)-[trans-4-(1-oxy-pyridin-3-yloxy)-cyclohexyl]-amino}-thiophene-2-carboxylic acid [Compound 24] | – | 99.9
CC(C)(C)C#Cc1cc(N(C(=O)[C@H]2CC[C@H](C)CC2)[C@H]2CC[C@H](Oc3ccc(C(F)(F)F)cn3)CC2)c(C(=O)O)s1 [Compound 10, 5-(3,3-Dimethyl-but-1-ynyl)-3-{(trans-4-methyl-cyclohexanecarbonyl)-[trans-4-(5-trifluoromethyl-pyridin-2-yloxy)-cyclohexyl]-amino}-thiophene-2-carboxylic acid] | 56.2 | –
CC(C)(C#Cc1cc(N(C(=O)[C@H]2CC[C@H](C)CC2)[C@H]2CC[C@H](OC3CCOC3)CC2)c(C(=O)O)s1)CCO (stereo partly drawn) [Compound 314, 5-(5-Hydroxy-3,3-dimethyl-pent-1-ynyl)-3-{(4-methyl-cyclohexanecarbonyl)-[4-(tetrahydro-furan-3-yloxy)-cyclohexyl]-amino}-thiophene-2-carboxylic acid] | 99.9 | –

Reference: US8569302B2, “Inhibitors of flaviviridae viruses” (Gilead Sciences, Inc., priority 2009, dated 2013)
